Values of other authors as cited in patent publication US20130001095A1, “METHOD OF PRODUCING COUPLED RADICAL PRODUCTS” (priority 2009, published 2013).

O=C([O-])CCCC(=O)[O-].[Na+].[Na+] [Sodium glutarate]
solubility in methanol (methanol): not soluble
solubility in water (water): soluble
